Measured values published in patent US20240158439A1, “INHIBITORS OF ANTIGEN PRESENTATION BY MHC CLASS II HLA-DRB1*15:01 MOLECULES WITH ENHANCED METABOLIC STABILITY” (Provid Pharmaceuticals Inc., priority 2021, published 2024).
Where two headings read alike, the source gives them in different places. *1 amine or outer side, *2 acyl side, *3 side chain or, on linkers, in order; H or OH if unused. Where a SMILES comes first, the peptide text is derived from it. Where no end group is shown, it is not given here. [ ]: non-standard residue; d: D form. The star is where a group is joined. ξ: configuration not given here. ξGly(4-Pip(1-amidino)) = N=C(N)N1CCC(C(N)C(=O)O)CC1; Ala(indol-4-yl) = N[C@@H](Cc1cccc2[nH]ccc12)C(=O)O; Phe(3,4-Cl2) = N[C@@H](Cc1ccc(Cl)c(Cl)c1)C(=O)O; X4 = O=C([C@H](Cc1cccc2[nH]ncc12)N[*:1])[*:2]; X1 = O=C([C@H](Cc1ccc2ccccc2n1)N[*:1])[*:2]; Phe(4-F) = N[C@@H](Cc1ccc(F)cc1)C(=O)O; Dab(CONH2) = NC(=O)NCC[C@H](N)C(=O)O; Bta = N[C@@H](Cc1csc2ccccc12)C(=O)O; Igl = N[C@H](C(=O)O)C1Cc2ccccc2C1; Tic = O=C(O)[C@@H]1Cc2ccccc2CN1; Cit = NC(=O)NCCC[C@H](N)C(=O)O; Chg = N[C@H](C(=O)O)C1CCCCC1; NHPhenethyl = c1ccc(CCN*)cc1; Tle = CC(C)(C)[C@H](N)C(=O)O; Nva = CCC[C@H](N)C(=O)O; βAla = NCCC(=O)O; Sar = CNCC(=O)O

Molecular target: T1, HLA-DRB1*15:01 (Homo sapiens, UniProt P01903+P01911)
T1 construct: endogenous in cells; host or cells: EBV homozygous cell lines (human)
Assay: HLA II binding assay (competitive, biotinylated reference peptide)

[1] = Table 2, DRB1*15:01 binding, unit inferred, nM, read-out: Avg IC50

IC50 [1] [nM] | Molecule | other results
1.3 | CC(=O)N[C@H](C(=O)N[C@H](C(=O)N[C@@H](CCCNC(=N)N)C(=O)N1Cc2ccccc2C[C@H]1C(=O)N[C@@H](Cc1ccccc1)C(N)=O)C1CCCCC1)C(C)(C)C [PV-590] (Ac-[Tle][Chg]R[Tic]F-NH2) | –
4.1 | CCC[C@H](NC(C)=O)C(=O)N[C@H](C(=O)N[C@@H](CCCNC(=N)N)C(=O)N1Cc2ccccc2C[C@H]1C(=O)N[C@@H](Cc1ccccc1)C(N)=O)C1CCCCC1 [PV-591] (Ac-[Nva][Chg]R[Tic]F-NH2) | –
2.3 | CC(=O)N[C@H](C(=O)N[C@H](C(=O)N[C@@H](CCCNC(=N)N)C(=O)N1Cc2ccccc2C[C@H]1C(=O)N[C@@H](Cc1ccc(F)cc1)C(N)=O)C1CCCCC1)C(C)C [PV-574] (Ac-V[Chg]R[Tic][Phe(4-F)]-NH2) | –
2 | CC(C)[C@H](NC(=O)CCN)C(=O)N[C@H](C(=O)N[C@@H](CCCNC(=N)N)C(=O)N1Cc2ccccc2C[C@H]1C(=O)N[C@@H](Cc1ccccc1)C(N)=O)C1CCCCC1 [PV-638] (H-[βAla]V[Chg]R[Tic]F-NH2) | –
– | CNC(=O)[C@H](Cc1ccccc1)NC(=O)[C@@H]1Cc2ccccc2CN1C(=O)[C@H](CCCNC(=N)N)NC(=O)[C@@H](NC(=O)[C@@H](NC(C)=O)C(C)C)C1CCCCC1 [PV-625] (Ac-V[Chg]R[Tic]F-NHMe) | loss in binding affinity relative to PV-267 (N-methyl amide vs primary amide): 8 fold; IC50 (read-out: binding IC50): 16 nM
161 | CC(=O)N[C@H](C(=O)N[C@H](C(=O)N[C@@H](CCCNC(=N)N)C(=O)N1Cc2ccccc2C[C@H]1C(=O)N[C@@H](Cc1ccccc1)C(=O)O)C1Cc2ccccc2C1)C(C)C [PV-624] (Ac-V[Igl]R[Tic]F-OH) | –
1.3 | CC(=O)N[C@H](C(=O)N[C@H](C(=O)N[C@@H](CCCNC(=N)N)C(=O)N1Cc2ccccc2C[C@H]1C(=O)N[C@@H](Cc1c[nH]c2ccccc12)C(N)=O)C1CCCCC1)C(C)C [PV-579] (Ac-V[Chg]R[Tic]W-NH2) | –
6 | CC(=O)N[C@H](C(=O)N[C@H](C(=O)NC(C(=O)N1Cc2ccccc2C[C@H]1C(=O)N[C@@H](Cc1ccccc1)C(N)=O)C1CCN(C(=N)N)CC1)C1CCCCC1)C(C)C (stereo partly drawn) [PV-810] (Ac-V[Chg][ξGly(4-Pip(1-amidino))][Tic]F-NH2) | –
4 | CNCC(=O)N[C@H](C(=O)N[C@H](C(=O)N[C@@H](CCCNC(N)=O)C(=O)N1Cc2ccccc2C[C@H]1C(=O)N[C@@H](Cc1ccccc1)C(N)=O)C1CCCCC1)C(C)C [PV-662] (H-[Sar]V[Chg][Cit][Tic]F-NH2) | –
82 | CC(=O)N[C@H](C(=O)N[C@@H](CCCNC(=N)N)C(=O)N1Cc2ccccc2C[C@H]1C(=O)N[C@@H](Cc1csc2ccccc12)C(N)=O)C1CCCCC1 [PV-477] (Ac-[Chg]R[Tic][Bta]-NH2) | –
30.1 | CC(=O)N[C@H](C(=O)N[C@@H](CCCNC(=N)N)C(=O)N1Cc2ccccc2C[C@H]1C(=O)N[C@@H](Cc1cccc2[nH]ccc12)C(N)=O)C1CCCCC1 [PV-476] (Ac-[Chg]R[Tic][Ala(indol-4-yl)]-NH2) | –
14 | CC(=O)N[C@H](C(=O)N[C@H](C(=O)N[C@@H](CCCNC(=N)N)C(=O)N1Cc2ccccc2C[C@H]1C(=O)N[C@@H](Cc1ccccc1)C(N)=O)C1Cc2ccccc2C1)C(C)C [PV-594] (Ac-V[Igl]R[Tic]F-NH2) | –
28 | CC(=O)N[C@H](C(=O)N[C@H](C(=O)N[C@@H](Cc1c[nH]cn1)C(=O)N1Cc2ccccc2C[C@H]1C(=O)N[C@@H](Cc1ccccc1)C(N)=O)C1CCCCC1)C(C)C [PV-580] (Ac-V[Chg]H[Tic]F-NH2) | –
2370 | Ac-VVRFF-NH2 [PV-73, reference compound] | –
4.1 | CO[C@H](C)[C@H](NC(C)=O)C(=O)N[C@H](C(=O)N[C@@H](CCCNC(=N)N)C(=O)N1Cc2ccccc2C[C@H]1C(=O)N[C@@H](Cc1ccccc1)C(N)=O)C1CCCCC1 [PV-592] (Ac-T(Me)[Chg]R[Tic]F-NH2) | –
1 | CC(C)[C@H](NC(=O)CN)C(=O)N[C@H](C(=O)N[C@@H](CCCNC(=N)N)C(=O)N1Cc2ccccc2C[C@H]1C(=O)N[C@@H](Cc1ccccc1)C(N)=O)C1CCCCC1 [PV-633] (H-GV[Chg]R[Tic]F-NH2) | –
17 | CNC(=O)[C@H](Cc1ccccc1)NC(=O)[C@@H]1Cc2ccccc2CN1C(=O)[C@H](CCCNC(=N)N)NC(=O)[C@@H](NC(=O)[C@@H](NC(C)=O)C(C)C)C1Cc2ccccc2C1 [PV-629] (Ac-V[Igl]R[Tic]F-NHMe) | –
3450 | CC(=O)N[C@H](C(=O)N[C@H](C(=O)N[C@@H](CCCNC(=N)N)C(=O)N1Cc2ccccc2C[C@H]1C(=O)N[C@@H](Cc1ccc2ccccc2n1)C(N)=O)C1CCCCC1)C(C)C [PV-617, reference compound] (Ac-V[Chg]R[Tic][X1]-NH2) | –
150 | CC(C)[C@H](NC(=O)CCN)C(=O)N[C@H](C(=O)N[C@@H](Cc1ccccc1)C(=O)N[C@@H](Cc1ccccc1)C(=O)N[C@@H](Cc1ccccc1)C(N)=O)C1CCCCC1 [PV-782] (H-[βAla]V[Chg]FFF-NH2) | –
3 | CC(=O)N[C@H](C(=O)N[C@H](C(=O)N[C@@H](CCCNC(=N)N)C(=O)N1Cc2ccccc2C[C@H]1C(=O)N[C@@H](Cc1cccc2[nH]ncc12)C(N)=O)C1CCCCC1)C(C)C [PV-676] (Ac-V[Chg]R[Tic][X4]-NH2) | –
5000 | CC(=O)N[C@H](C(=O)N[C@@H](CCCNC(=N)N)C(=O)N[C@@H](Cc1ccccc1)C(=O)N[C@@H](Cc1ccccc1)C(N)=O)C(C)C [PV-119, reference compound] (Ac-VRFF-NH2) | –
1.5 | CC(=O)N[C@H](C(=O)N[C@H](C(=O)N[C@@H](CCCNC(=N)N)C(=O)N1Cc2ccccc2C[C@H]1C(=O)N[C@@H](Cc1cccc2[nH]ccc12)C(N)=O)C1CCCCC1)C(C)C [PV-493] (Ac-V[Chg]R[Tic][Ala(indol-4-yl)]-NH2) | –
4 | CC(=O)N[C@H](C(=O)N[C@H](C(=O)N[C@@H](CCNC(N)=O)C(=O)N1Cc2ccccc2C[C@H]1C(=O)N[C@@H](Cc1ccccc1)C(N)=O)C1CCCCC1)C(C)C [PV-642] (Ac-V[Chg][Dab(CONH2)][Tic]F-NH2) | –
464 | CC(=O)N[C@H](C(=O)N[C@H](C(=O)N[C@@H](CCCNC(=N)N)C(=O)N1Cc2ccccc2C[C@H]1C(=O)NCCc1ccccc1)C1CCCCC1)C(C)C [PV-708, reference compound] (Ac-V[Chg]R[Tic]-NHPhenethyl) | –
2 | CC(C)[C@H](NC(=O)CCN)C(=O)N[C@H](C(=O)N[C@@H](CCCNC(N)=O)C(=O)N1Cc2ccccc2C[C@H]1C(=O)N[C@@H](Cc1ccccc1)C(N)=O)C1CCCCC1 [PV-664] (H-[βAla]V[Chg][Cit][Tic]F-NH2) | –
29 | CC(=O)N[C@H](C(=O)N[C@H](C(=O)N[C@@H](CCCNC(=N)N)C(=O)N1Cc2ccccc2C[C@H]1C(=O)N[C@@H](Cc1ccccc1)C(N)=O)C1CCCCC1)[C@@H](C)O [PV-526] (Ac-T[Chg]R[Tic]F-NH2) | –
5 | CC(C)[C@H](NC(=O)CN)C(=O)N[C@H](C(=O)N[C@@H](CCCNC(N)=O)C(=O)N1Cc2ccccc2C[C@H]1C(=O)N[C@@H](Cc1ccccc1)C(N)=O)C1CCCCC1 [PV-661] (H-GV[Chg][Cit][Tic]F-NH2) | –
– | EAEQLRRAYLDGTGVE [A3 152-166, reference compound] | IC50 (reference peptide, DRB1*1501, read-out: IC50): 14 nM
4.1 | CC(=O)N[C@H](C(=O)N[C@H](C(=O)N[C@@H](CCCNC(=N)N)C(=O)N1Cc2ccccc2C[C@H]1C(=O)N[C@@H](Cc1ccc(Cl)c(Cl)c1)C(N)=O)C1CCCCC1)C(C)C [PV-593] (Ac-V[Chg]R[Tic][Phe(3,4-Cl2)]-NH2) | –
